Assay results reported in patent publication US20250332266A1, “COMPOUNDS FOR THE DEGRADATION OF EGFR KINASE” (BeiGene Switzerland GmbH, priority 2022, published 2025).

What was measured:
[1] = target: EGFR Del19/T790M/C797S (H1975-clone #28) (Homo sapiens, UniProt P00533, T790M/C797S, form not given); assay: EGFR degradation, HTRF total-EGFR assay, H1975-clone #28 (DTC); assay type: cell-based; details: H1975-clone #28 Del19/T790M/C797S, 16 h treatment
Text: (§1) H1975-clone #28 (Del19/T790M/C797S, or abbr: DTC), H1975-clone #23 (Del19/C797S, or abbr: DC), H1975-clone #25 (L858R/T790M/C797S, or abbr: LTC) and H1975-clone #8 (L858R/C797S, or abbr: LC). EGFR-Del19/T790M/C797S, EGFR-Del19/C797S, EGFR-L858R/T790M/C797S and EGFR-L858R/C797S were stably expressed in H1975 cell lines by lentivirus-mediated over-expression, respectively. The EGFR over-expressed cells then underwent knockout, in which the EGFR targeting sgRNA was designed to only target the endogenous EGFR copies and preserve the exogenous EGFR copies. Followed by the knockout, the edited H1975 cells were seeded in 96 well plates at the concentration of 1 cell/well, cultured for about 2 weeks to allow single clones formation. The formed clones were screened by DNA sequencing and whole exon sequencing analysis for the desired edition. H1975-clone #28, H1975-clone #23, H1975-clone #25 and H1975-clone #8 were finally confirmed as homozygous Del19/T790M/C797S EGFR, Del19/C797S EGFR, L858R/T790M/C797S EGFR and L858R/C797S EGFR clones, respectively.
(§2) H1975-#25, H1975-#28, H1975-#23 and H1975-#8 cells are treated with compounds diluted in 0.2% DMSO cell culture medium on day 2, incubate for 16 h, 37° C., 5% CO2. The final concentration of compounds in all assay is start with 10 μM, 5-fold dilution, total 8 doses were included.
(§3) Total-EGFR cellular kit(64NG1PEH) were used for evaluating EGFR degradation.
(§4) After 16 h treatment, add HTRF lysis buffer to each well; seal the plate and incubate 1 hour at room temperature on a plate shaker; Once the cells are lysed, 16 μL of cell lysate are transferred to a PE 384-well HTRF detection plate; 4 μL of pre-mixed HTRF antibodies are added to each well; cover the plate with a plate sealer, spin 1000 rpm for 1 min, incubate overnight at room temperature; read on BMG PheraStar with HTRF protocol (337 nm-665 nm-620 nm).
(§5) The inhibition (degradation) percentage of the compound was calculated by the following equation:
(§6) Inhibition percentage of Compound=100−100×(Signal−low control)/(High control−low control), wherein signal=each test compound group
(§7) High control=Cell group with added DMSO and without compound, indicating microplate readings without EGFR degradation.
(§8) Imax (Dmax) is the maximum percentage of inhibition (degradation).
(§9) The IC50 (DC50) value of a compound can be obtained by fitting the following equation
(§10) Wherein, X and Y are known values, and IC50, Hillslope, Top and Bottom are the parameters obtained by fitting with software. Y is the inhibition percentage (calculated from the equation), X is the concentration of the compound; IC50 is the concentration of the compound when the 50% inhibition is reached. The smaller the IC50 value is, the stronger the inhibitory ability of the compound is. Vice versa, the higher the IC50 value is, the weaker the ability the inhibitory ability of the compound is; Hillslope represents the slope of the fitted curve, generally around 1*; Bottom represents the minimum value of the curve obtained by data fitting, which is generally 0%±20%; Top represents the maximum value of the curve obtained by data fitting, which is generally 100%±20%. The experimental data were fitted by calculating and analyzing with Dotmatics data analysis software.

[2] = target: T1, EGFR L858R/T790M/C797S (H1975-clone #25) (Homo sapiens, UniProt P00533, C797S/L858R/T790M); assay: EGFR degradation, HTRF total-EGFR assay, H1975-clone #25 (LTC); assay type: cell-based; details: H1975-clone #25 L858R/T790M/C797S, 16 h treatment
T1 construct: expressed in transfected cells; host or cells: H1975 (clone #25), lentiviral transduction, endogenous EGFR knocked out
Text: as §1, §2, §3, §4, §5, §6, §7, §8, §9, §10

Chain of EGFR Del19/T790M/C797S (H1975-clone #28) (P00533 with tags, fused parts or gaps DEL746-750/T790M/C797S, form open): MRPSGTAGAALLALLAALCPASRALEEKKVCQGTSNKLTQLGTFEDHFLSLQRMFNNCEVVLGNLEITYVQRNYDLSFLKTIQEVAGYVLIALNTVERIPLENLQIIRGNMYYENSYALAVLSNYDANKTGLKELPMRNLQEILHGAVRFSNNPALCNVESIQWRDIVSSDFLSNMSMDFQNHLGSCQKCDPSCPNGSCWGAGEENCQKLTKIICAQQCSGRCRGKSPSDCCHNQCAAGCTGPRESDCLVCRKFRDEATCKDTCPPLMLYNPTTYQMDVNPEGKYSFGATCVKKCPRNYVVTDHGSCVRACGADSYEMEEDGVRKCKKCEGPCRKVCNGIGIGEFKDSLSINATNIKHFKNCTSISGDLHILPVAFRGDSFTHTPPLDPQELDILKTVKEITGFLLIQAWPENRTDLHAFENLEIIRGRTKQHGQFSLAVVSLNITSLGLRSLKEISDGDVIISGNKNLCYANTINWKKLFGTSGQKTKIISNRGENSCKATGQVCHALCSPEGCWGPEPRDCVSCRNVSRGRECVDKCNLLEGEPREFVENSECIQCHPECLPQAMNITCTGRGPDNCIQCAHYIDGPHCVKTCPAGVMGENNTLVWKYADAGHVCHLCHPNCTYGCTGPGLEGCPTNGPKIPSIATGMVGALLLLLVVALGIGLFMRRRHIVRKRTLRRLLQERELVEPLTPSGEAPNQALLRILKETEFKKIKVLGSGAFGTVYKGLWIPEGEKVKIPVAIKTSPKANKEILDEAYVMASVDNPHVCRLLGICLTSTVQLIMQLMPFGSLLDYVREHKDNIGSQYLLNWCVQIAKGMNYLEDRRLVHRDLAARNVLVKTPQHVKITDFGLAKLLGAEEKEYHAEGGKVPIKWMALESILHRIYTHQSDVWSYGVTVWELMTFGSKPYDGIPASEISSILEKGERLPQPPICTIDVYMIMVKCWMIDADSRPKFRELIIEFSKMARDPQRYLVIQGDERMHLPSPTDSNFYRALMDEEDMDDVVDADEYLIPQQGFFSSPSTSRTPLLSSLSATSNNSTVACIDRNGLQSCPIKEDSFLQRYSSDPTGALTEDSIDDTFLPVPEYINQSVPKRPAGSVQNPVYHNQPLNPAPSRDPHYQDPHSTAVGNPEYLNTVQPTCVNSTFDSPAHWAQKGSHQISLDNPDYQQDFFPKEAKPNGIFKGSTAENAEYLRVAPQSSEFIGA
T1 sequence (P00533 25-1210 T790M/C797S/L858R): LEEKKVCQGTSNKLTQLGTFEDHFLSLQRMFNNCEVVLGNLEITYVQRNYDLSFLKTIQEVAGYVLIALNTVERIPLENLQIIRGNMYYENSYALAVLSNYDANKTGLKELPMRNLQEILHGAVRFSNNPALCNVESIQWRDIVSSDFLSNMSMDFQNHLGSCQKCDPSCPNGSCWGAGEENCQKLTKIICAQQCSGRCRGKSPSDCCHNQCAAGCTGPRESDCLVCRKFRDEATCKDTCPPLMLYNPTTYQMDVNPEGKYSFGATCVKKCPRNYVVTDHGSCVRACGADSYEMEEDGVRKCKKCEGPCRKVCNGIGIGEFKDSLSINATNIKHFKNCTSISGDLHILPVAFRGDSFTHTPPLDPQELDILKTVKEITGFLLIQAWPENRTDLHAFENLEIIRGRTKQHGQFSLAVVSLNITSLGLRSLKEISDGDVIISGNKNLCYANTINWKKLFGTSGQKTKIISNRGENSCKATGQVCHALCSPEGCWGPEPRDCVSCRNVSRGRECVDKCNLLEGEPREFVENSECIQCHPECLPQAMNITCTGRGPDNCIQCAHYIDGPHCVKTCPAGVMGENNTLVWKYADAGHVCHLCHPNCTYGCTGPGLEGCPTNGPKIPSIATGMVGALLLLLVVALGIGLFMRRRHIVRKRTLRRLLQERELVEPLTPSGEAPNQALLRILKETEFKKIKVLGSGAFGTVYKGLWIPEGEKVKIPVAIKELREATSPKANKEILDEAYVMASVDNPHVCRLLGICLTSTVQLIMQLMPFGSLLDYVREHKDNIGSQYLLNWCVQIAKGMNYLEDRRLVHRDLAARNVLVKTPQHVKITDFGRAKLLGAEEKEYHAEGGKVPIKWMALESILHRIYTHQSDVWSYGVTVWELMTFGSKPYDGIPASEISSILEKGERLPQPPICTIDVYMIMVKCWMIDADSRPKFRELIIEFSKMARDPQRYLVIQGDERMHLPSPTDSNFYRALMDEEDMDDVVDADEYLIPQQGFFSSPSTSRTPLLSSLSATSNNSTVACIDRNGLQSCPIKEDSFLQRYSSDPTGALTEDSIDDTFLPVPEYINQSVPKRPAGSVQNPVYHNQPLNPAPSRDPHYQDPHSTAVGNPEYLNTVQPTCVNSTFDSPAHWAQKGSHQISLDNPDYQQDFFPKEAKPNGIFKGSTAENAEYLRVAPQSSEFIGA

Structure (SMILES)	Degradation H1975 # 28 DTC [1]	Degradation H1975 # 25-LTC [2]
Cc1cc2cc(n1)-c1cnn(C)c1OC[C@H]1C[C@@H](CN3/C(=N/C2=O)Nc2ccc(N4CCN([C@H]5CCN(c6ccc(C7CCC(=O)NC7=O)nc6C)C[C@H]5F)CC4)cc23)C1 (stereo partly drawn) [Example 19, 3-(5-((3R,4S)-4-(4-((7^1s,7^3R,E)-1^1,2^6-dimethyl-3-oxo-5^2,5^3-dihydro-1^1H,5^1H-9-oxa-4-aza-5(2,1)-benzo[d]imidazola-2(2,4)-pyridina-1(4,5)-pyrazola-7(1,3)-cyclobutanacyclononaphane-5^6-yl)piperazin-1-yl)-3-fluoropiperidin-1-yl)-6-methylpyridin-2-yl)piperidine-2,6-dione]	92.8	92.2
Cc1cc2cc(n1)-c1cnn(C)c1OC[C@H]1C[C@@H](CN3/C(=N/C2=O)Nc2ccc(N4C5CCC4CN(C4CCN(c6ccc(C7CCC(=O)NC7=O)nc6C)CC4)C5)cc23)C1 (stereo partly drawn) [Example 127, 3-(5-(4-(8-((7^1s,7^3s,E)-1^1,2^6-dimethyl-3-oxo-5^2,5^3-dihydro-1^1H,5^1H-9-oxa-4-aza-5(2,1)-benzo[d]imidazola-2(2,4)-pyridina-1(4,5)-pyrazola-7(1,3)-cyclobutanacyclononaphane-5^6-yl)-3,8-diazabicyclo[3.2.1]octan-3-yl)piperidin-1-yl)-6-methylpyridin-2-yl)piperidine-2,6-dione]	85.5	96.0
Cc1cc2cc(n1)-c1cnn(C)c1OC[C@H]1C[C@@H](CN3/C(=N/C2=O)Nc2ccc(N4CCN(C5CCN(c6ccc(C7CCC(=O)NC7=O)nc6C)CC5)C[C@@H]4C)cc23)C1 (stereo partly drawn) [Example 33, 3-(5-(4-((S)-4-((7^1s,7^3R,E)-1^1,2^6-dimethyl-3-oxo-5^2,5^3-dihydro-1^1H,5^1H-9-oxa-4-aza-5(2,1)-benzo[d]imidazola-2(2,4)-pyridina-1(4,5)-pyrazola-7(1,3)-cyclobutanacyclononaphane-5^6-yl)-3-methylpiperazin-1-yl)piperidin-1-yl)-6-methylpyridin-2-yl)piperidine-2,6-dione]	89.4	93.3

Results, then the compound that gave them:

Degradation H1975 # 28 DTC [1]	Degradation H1975 # 25-LTC [2]	Structure (SMILES)
88.8	88.8	Cc1cc2cc(n1)-c1cnn(C)c1OC[C@H]1C[C@@H](CN3/C(=N/C2=O)Nc2ccc(N4CCN(C5CCN(c6cnc([C@H]7CCC(=O)NC7=O)cc6C)CC5)C[C@@H]4C)cc23)C1 [Example 32, 3-(5-(4-((S)-4-((7^1s,7^3R,E)-1^1,2^6-dimethyl-3-oxo-5^1,5^3-dihydro-1^1H,5^1H-9-oxa-4-aza-5(2,1)-benzo[d]imidazola-2(2,4)-pyridina-1(4,5)-pyrazola-7(1,3)-cyclobutanacyclononaphane-5^6-yl)-3-methylpiperazin-1-yl)piperidin-1-yl)-4-methylpyridin-2-yl)piperidine-2,6-dione]
89.9	83.4	Cc1cc2cc(n1)-c1cnn(C)c1OC[C@H]1C[C@@H](CN3/C(=N/C2=O)Nc2ccc(N4CCN(C5CCN(c6cc(F)c([C@H]7CCC(=O)NC7=O)c(F)c6)CC5)C(=O)C4)cc23)C1 [Example 25, (R)-3-(4-(4-(4-((7^1s,7^3s,E)-1^1,2^6-dimethyl-3-oxo-5^2,5^3-dihydro-1^1H,5^1H-9-oxa-4-aza-5(2,1)-benzo[d]imidazola-2(2,4)-pyridina-1(4,5)-pyrazola-7(1,3)-cyclobutanacyclononaphane-5^6-yl)-2-oxopiperazin-1-yl)piperidin-1-yl)-2,6-difluorophenyl)piperine-2,6-dione]
76.0	87.3	Cc1cc2cc(n1)-c1cnn(C)c1OC[C@H]1C[C@@H](CN3/C(=N/C2=O)Nc2ccc(N4CCN(C5CCN(c6ccc(C7CCC(=O)NC7=O)nc6)CC5)CC4)cc23)C1 (stereo partly drawn) [Example 15, 3-(5-(4-(4-((7^1s,7^3s,E)-1^1,2^6-dimethyl-3-oxo-5^2,5^3-dihydro-1^1H,5^1H-9-oxa-4-aza-5(2,1)-benzo[d]imidazola-2(2,4)-pyridina-1(4,5)-pyrazola-7(1,3)-cyclobutanacyclononaphane-5^6-yl)piperazin-1-yl)piperidin-1-yl)pyridin-2-yl)piperidine-2,6-dione]
